Data taken from ChEMBL document CHEMBL3217661, “Selective inhibition of E. coli 1-deoxy-D-xylulose-5-phosphate synthase by acetylphosphonates()” (Medchemcomm, 2012).

Assays:
[1] = target: T1, 1-deoxy-D-xylulose-5-phosphate synthase (Escherichia coli (strain K12), UniProt P77488); assay: Competitive inhibition of ThDP-dependent Escherichia coli DXP synthase using pyruvate as substrate assessed as NADPH consumption by spectrophotometric coupled assay
T1 sequence (P77488 whole entry): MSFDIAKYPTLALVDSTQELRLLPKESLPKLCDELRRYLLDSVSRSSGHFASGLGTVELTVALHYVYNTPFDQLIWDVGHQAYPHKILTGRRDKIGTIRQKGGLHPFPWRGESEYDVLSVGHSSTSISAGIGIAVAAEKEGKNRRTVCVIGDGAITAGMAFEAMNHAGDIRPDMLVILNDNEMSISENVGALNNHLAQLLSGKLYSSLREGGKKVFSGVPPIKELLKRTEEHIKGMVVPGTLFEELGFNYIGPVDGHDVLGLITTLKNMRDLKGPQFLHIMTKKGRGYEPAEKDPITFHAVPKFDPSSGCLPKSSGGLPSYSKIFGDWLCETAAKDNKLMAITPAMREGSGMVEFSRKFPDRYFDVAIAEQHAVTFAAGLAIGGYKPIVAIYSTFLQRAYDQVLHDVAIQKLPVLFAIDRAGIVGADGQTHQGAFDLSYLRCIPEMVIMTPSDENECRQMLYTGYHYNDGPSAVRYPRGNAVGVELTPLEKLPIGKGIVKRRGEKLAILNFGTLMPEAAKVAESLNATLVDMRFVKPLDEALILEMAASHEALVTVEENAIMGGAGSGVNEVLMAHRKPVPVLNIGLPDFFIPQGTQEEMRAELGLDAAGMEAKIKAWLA

[2] = Inhibition of ThDP-dependent pyruvate dehydrogenase E1 subunit in porcine heart using pyruvate as substrate by spectrophotometric coupled assay; set-up: species or system Sus scrofa
[3] = Inhibition of ThDP-dependent Saccharomyces cerevisiae transketolase by spectrophotometric coupled assay
[4] = Selectivity ratio of Ki for pyruvate dehydrogenase E1 subunit in porcine heart to Ki for Escherichia coli DXP synthase

SMILES | Ki [1] [µM] | Ki [2] [µM] | Ki [3] [µM] | Ratio Ki [4]
COP(=O)(O)C(C)=O | 0.96 | 29.9 | > 1000 | 31
CCOP(=O)(O)C(C)=O | 6.7 | 46.6 | > 1000 | 
CCCCC(=O)P(=O)(O)OC | > 1000 | > 1000 | > 1000 | 
CCCCOP(=O)(O)C(C)=O | 5.6 | 335 | > 1000 | 60
CCCC(=O)P(=O)(O)OC | > 1000 | > 1000 | > 1000 | 
CCC(=O)P(=O)(O)OC | 258 | > 1000 | > 1000 | 
